Assay results reported in US20050032246A1, “Method of immobilizing membrane-associated molecules” (priority 2002, published 2005).

Legend:
[1] = test system: IMR-32 nAChR; type: biochemical, human
Protocol: Lipid films consisting of EggPC, EggPE, Sphingomylin and cholesterol in mol ratios of 55:27:9:9 percent, respectively, were prepared as described earlier, and rehydrated to a final lipid concentration of 3.0 mg/mL and Fluo-3 concentration of 65 μM. The liposome stock was then mixed with a small amount of DMM bringing the solution to a final concentration of 0.2 mM. Immediately following this, IMR-32 nAChR stock was added to the detergent lipid mixture and allowed to incubate at 4° C. for 90 min. Following this 15 mg of SM2-Biobeads were added to the mixture and incubated for 1 hr. This was repeated 3 times with the final addition allowed to incubate for a period of 12 hrs. […]
In these assays, IMR-32 nAChR containing liposomes with an intraliposomal solution of Fluo-3 were entrapped as described above in 1:1 (v/v) in DGS derived silica. […] Antagonism of the nAChR ion channel was measured by addition of 25 μL of the nAChR antagonist d-tubocurarine to the top of the nAChR-containing monolith in the 96-well plate. Ligand-gated ion-flux was monitored through time dependent changes in fluorescence intensity upon the addition of 50 μL of 3 M CaCl2 using a TECAN-Safire microwell platereading fluorescence system. Fluo-3 emission was monitored and 526 nm with an excitation wavelength of 488 nm, emission and excitation bandpasses of 5 and 7.5 nm, and a detector gain of 130 V, over a period of 45 min. […]

[2] = target: IMR-32 nAChR; type: binding, human; settings: IMR-32 nAChR entrapped in DGS; constant 3H-epibetadine; FIG. 10
Protocol: Sodium silicate or DGS derived sol precursors were prepared by methods described previously.^64 The sol solution was mixed 1:1 (v/v) with the buffered liposome or reconstituted nAChR solution, in the bottoms of 96 well microtiter plates to a final volume of 100 μL. For entrapment of IMR-32 cells for ion flux assays, the nAChR containing stock described above was uses for entrapment without further dilution. For radioassays using IMR-32 nAChR, the stock sample as provided directly from Perkin Elmer was diluted four fold in 25 mM HEPES, 100 mM KCl, 5 mM EGTA, pH 7.4 and mixed 1:1 (v/v) in DGS derived sol. The samples were aged for 1 hr at 4° C. For Torpedo Californica nAChR, the stock sample was diluted four fold in 150 mM HEPES, 100 mM KCl, 5 mM EDTA, pH 7.4, and mixed 1:1 (v/v) with sodium silicate derived sol.
Samples of either entrapped Torpedo californica nAChR, IMR-32 nAChR or Asolectin liposomes were formed in the bottoms of 96-well microtiter plates. […] The radioactive decay from ^3H-epibatidine was then counted for 5 min to determine the ratio of free ligand existing in solution. […] Using the information from these samples the amount of receptor bound ligand could be determined. […] Free ligand was determined as described above.

[3] = Fluo-3 Ca(II) influx into DOPC liposomes in buffered solution after addition of ionophore; type: biochemical; settings: Ca(II) outside, fluo-3 inside, FIG. 14
Protocol: DOPC stock solutions were purchased in chloroform at a concentration of 20 mg.mL^−1. DOPC stock solution was dispensed in disposable glass vials and the organic solvent was removed by evaporation under a dry nitrogen gas stream to remove the bulk of the organic solvent, followed by evaporation under vacuum for two hours. The resulting dried lipid films were then rehydrated in a buffer consisting of 25 mM EGTA, 25 mM EDTA, 10% Sucrose (w/w), 10 mM KCl, 0.529 mM Fluo-3, pH 7.6 to a final lipid concentration of 2 mg/mL. The hydrated liposomes were then extruded through 600 nm pores, with an Avanti—MINIEXTRUDER at room temperature to create a mono-disperse suspension of unilamellar liposomes 600 nm in diameter. The external Fluo-3 was removed by filtration through a column packed with Sephadex G25 to yield liposomes with dye only on the interior of the liposome.
In this case, Ca(II) is initially present only outside the liposome, while fluo-3 is present only inside the liposome. The addition of ionomycin results in the incorporation of the ionophore into the membrane, and produces a channel through which Ca(II) can move into the interior of the liposome. […]

[4] = test system: gramicidin A; experiment: Safranine O ion-channel activity assay of reconstituted gramicidin A entrapped in DGS derived silicate; type: biochemical; settings: various levels of CaCl2 with 3.0 M KI; several hundred millimolar Ca2+ required; FIG. 6
Protocol: The Gramicidin A stock was prepared in a solution of chloroform, trifluoroethanol and dimethylsulfoxide (19:5:1 volume ratio) to a final concentration of 4.79×10^−4M. Gramicidin A stock solutions were mixed with the lipid stock solutions (20 mg.mL^−1 DOPC in chloroform) in disposable glass vials to provide final ratios of gA:lipid of either 0.39 mol % or 0.94 mol %. The organic solvent was removed by evaporation under a dry nitrogen gas stream to remove the bulk of the organic solvent, followed by evaporation under vacuum for two hours. […]
For ion-channel studies, reconstitution of gramicidin A samples was done using an unbuffered aqueous solution containing 50 μM safranine O at pH 7.0. […] Liposome solutions that were used for tryptophan fluorescence studies consisted of 0.94 mol % of gramicidin A in DOPC that was hydrated to final concentrations of 1.0 μM of gA in 100 mM phosphate buffer at pH 7.0. […]
The fluorescence intensity response of safranine O was monitored using the MICROMAX microwell plate reader. Fluorescence emission was monitored as a function of time at 565 nm with an excitation wavelength of 528 nm upon addition of 125 μL of various concentrations of potassium iodide to the top of the monolithic samples in the microwell plate to create an ionic gradient across the membrane. […]

## COc1cc2c3cc1Oc1cc(ccc1O)C[C@@H]1c4c(cc(OC)c(O)c4Oc4ccc(cc4)C[C@@H]3N(C)CC2)CC[N+]1(C)C [d-tubocurarine]
[1]; liposomes previously incubated with excess nicotine, FIG. 12
  fluo-3 emission response to Ca(II) (ion flux) upon addition of antagonist: the response is reduced
[2]
  IC50 and KI values compared with solution based experiments: in good agreement with those obtained from solution based experiments

## C[C@H](CCC(=O)O)C[C@H](C)C[C@H](C)C(=O)/C=C(\O)[C@H](C)C[C@H](C)C/C=C/[C@@H](C)[C@@H](O)[C@@H](C)[C@@H](O)C[C@@H]1CC[C@@](C)([C@H]2CC[C@@](C)([C@@H](C)O)O2)O1 [ionomycin]
[3]
  increase of fluo-3 response on Ca(II) influx: 3 fold

## O=c1cccc2n1C[C@@H]1CNC[C@H]2C1 [cytisine]
[1]
  fluo-3 emission response to Ca(II) (ion flux) upon addition of agonist: acts as an agonist

## CN1CCCC1c1cccnc1 (single isomer, unassigned; (-)) [nicotine, (−)-nicotine]
[2]
  IC50 and KI values compared with solution based experiments: in good agreement with those obtained from solution based experiments

## [Ca+2].[Cl-].[Cl-] [CaCl2]
[4]
  potential induced fluorescence response to potassium ion flux (inhibition of ion-channel activity): significant and concentration-dependent decrease
